{"source": "patent US20060287320A1", "about": "“Preparation of thioarabinofuranosyl compounds and use thereof” (Southern Research Institute, priority 1998, published 2006)", "key": {"[1]": {"system": "PC-3 Prostate", "test": "In vitro IC50, 72 hour exposure, Natural Red assay", "format": "cell-based", "details": "read-out: IC50 Molar Values", "procedure": "(§1) EXAMPLE 3 The following in vitro tests were carried out.\n(§2) The above tests were carried out with a 72 hour exposure to the compound using Natural Red assay for all cell lines except SK-MEL 28 which was done with SRB assay."}, "[2]": {"system": "CAK1-1 Renal", "test": "In vitro IC50, 72 hour exposure, Natural Red assay", "format": "cell-based", "details": "read-out: IC50 Molar Values", "procedure": "as §1, §2"}, "[3]": {"system": "DLD-1 Colon", "test": "In vitro IC50, 72 hour exposure, Natural Red assay", "format": "cell-based", "details": "Homo sapiens, read-out: IC50 Molar Values", "procedure": "as §1, §2"}, "[4]": {"system": "NC1-H23 Lung", "test": "In vitro IC50, 72 hour exposure, Natural Red assay", "format": "cell-based", "details": "read-out: IC50 Molar Values", "procedure": "as §1, §2"}, "[5]": {"system": "ZR-75-1 Mammary", "test": "In vitro IC50, 72 hour exposure, Natural Red assay", "format": "cell-based", "details": "Homo sapiens, read-out: IC50 Molar Values", "procedure": "as §1, §2"}, "[6]": {"system": "LOX IMV1 Melanoma", "test": "In vitro IC50, 72 hour exposure, Natural Red assay", "format": "cell-based", "details": "read-out: IC50 Molar Values", "procedure": "as §1, §2"}, "[7]": {"system": "SC CAKI-1 Renal Tumor", "test": "Response of SC CAKI-1 Renal Tumor to Treatment", "format": "in vivo", "procedure": "(§3) The following in vivo tests were carried out to illustrate the effectiveness of the compounds of the present invention."}, "[8]": {"system": "SC HCT-116 Colon Tumor", "test": "Response of SC HCT-116 Colon Tumor to Treatment", "format": "in vivo", "details": "Q 1D × 9 day 6", "procedure": "as §3"}, "[9]": {"system": "SC Colon 36 Tumor", "test": "Response of SC Colon 36 Tumor to Treatment", "format": "in vivo", "details": "18 Mg/Kg IP, Q 1D × 9 day 9", "procedure": "as §3"}, "[10]": {"system": "CEM cells", "test": "Retention of araCTP and T-araCTP in CEM cells (FIG. 2)", "format": "cell-based", "procedure": "[…]. Samples were collected at various times after the cells were resuspended in fresh medium, and the amount of radioactivity in the 5′-triphosphate peak was determined using SAX HPLC. In this experiment there was 0.639 pmoles araCTP/10^6 cells and 0.246 pmoles of T-araCTP after the 1 hour incubation with radiolabeled compound."}, "[11]": {"system": "CEM cells", "test": "Initial half-life of triphosphates in CEM cells", "format": "cell-based", "details": "CEM cells after 1 hour with 100 nM radiolabeled nucleoside, then fresh medium; 5′-triphosphate peak", "procedure": "Samples were collected at various times after the cells were resuspended in fresh medium, and the amount of radioactivity in the 5'-triphosphate peak was determined using SAX HPLC. The data presented are the mean and standard deviation from 3 separate experiments."}, "[12]": {"system": "CEM cells", "test": "Complete metabolism of dCyd, T-dCyd, araC and T-araC in CEM cells", "format": "cell-based", "details": "100 nM, incubation 1 hour", "procedure": "The complete metabolism of each compound was determined: The medium was analyzed for the original compound, its deaminated form using reverse phase HPLC, and H20; the acid-soluble extract was analyzed by SAX HPLC for phosphorylated metabolites; and the incorporation of radioactivity into acid-precipitable material (DNA) was determined."}, "[13]": {"test": "Phosphorylation in cell-free CEM extracts, araC-resistant", "format": "biochemical", "details": "phosphorylation in araC-resistant vs wild-type CEM extract", "procedure": "(§4) The number in parentheses is the number of experiments performed. […] At various times after the initiation of the experiment, an aliquot of each reaction volume was removed and placed on DE-81 filters. The filters were washed with 1 mM ammonium formate and ethanol, and the amount of radioactivity on each filter was determined. […] This assay was verified by HPLC."}, "[14]": {"system": "CEM cells", "test": "Effect of F-dUrd on metabolism (deamination) in CEM cells", "format": "cell-based", "details": "100 nM, incubation time 1 hour", "procedure": "The complete metabolism of each compound was determined as described in the legend to Table 12, and the percent of deaminated metabolites for each compound was determined."}, "[15]": {"system": "araC-resistant CEM cells", "test": "Metabolism of dCyd and analogs in araC-resistant CEM cells", "format": "cell-based", "details": "100 nM, incubation time 0.25 hours", "procedure": "(§5) The radioactivity in the 5′-triphosphate peak and the incorporation of radioactivity in the acid-insoluble fraction (DNA) was determined."}, "[16]": {"test": "Phosphorylation in cell-free CEM extracts, wild-type", "format": "biochemical", "details": "wild-type CEM cell extract; 1 μm substrate", "procedure": "as §4"}, "[17]": {"system": "CEM cells (wild-type)", "test": "Metabolism of dCyd and analogs in wild-type CEM cells", "format": "cell-based", "details": "WT CEM cells; 100 nM; incubation time 0.25 hours", "procedure": "as §5"}}}
{"smiles": "Nc1nc(=O)n([C@@H]2S[C@H](CO)[C@@H](O)[C@@H]2O)cc1F", "note": "[5-fluorothioaraC, 1-(4-Thio-β-D-arabinofuranosyl)5-fluorocytosine]", "values": [{"measurement": "IC50", "setting": "[1]", "result": 100, "unit": "µM"}, {"measurement": "IC50", "setting": "[2]", "result": 20, "unit": "µM"}, {"measurement": "IC50", "setting": "[3]", "result": 80, "unit": "µM"}, {"measurement": "IC50", "setting": "[4]", "result": 3, "unit": "µM"}, {"measurement": "IC50", "setting": "[5]", "result": 0.6, "unit": "µM"}, {"measurement": "IC50", "setting": "[6]", "result": 6, "unit": "µM"}]}
{"smiles": "CCCCCCCCCCCCCCCC(=O)Nc1ccn([C@@H]2O[C@H](CO)[C@@H](O)[C@@H]2O)c(=O)n1", "note": "[Palmo-ARA-C]", "values": [{"measurement": "Days Delay (T − C)", "setting": "[7]; 22.5 Mg/Kg IP, 0 1D × 9 day 7", "result": 26.5, "unit": "days"}, {"measurement": "Days to 3 Doubling", "setting": "[7]; 22.5 Mg/Kg IP, 0 1D × 9 day 7", "result": 36.0, "unit": "days"}, {"measurement": "Non-Specific Deaths/Total", "setting": "[7]; 22.5 Mg/Kg IP, 0 1D × 9 day 7", "result": "1/6"}, {"measurement": "Tumor Free Surv/Total", "setting": "[7]; 22.5 Mg/Kg IP, 0 1D × 9 day 7", "result": "0/6"}, {"measurement": "Tumor Regression Duration Med", "setting": "[7]; 22.5 Mg/Kg IP, 0 1D × 9 day 7", "result": 9.1, "unit": "days"}, {"measurement": "Tumor Regression Duration Range (Days)", "setting": "[7]; 22.5 Mg/Kg IP, 0 1D × 9 day 7", "result": "9-9 Days"}, {"measurement": "Tumor Regression Number of Complete", "setting": "[7]; 22.5 Mg/Kg IP, 0 1D × 9 day 7", "result": 1}, {"measurement": "Tumor Regression Number of Partial", "setting": "[7]; 22.5 Mg/Kg IP, 0 1D × 9 day 7", "result": 0}, {"measurement": "Days Delay (T − C)", "setting": "[7]; 45 Mg/Kg IP, Q 1D × 5 day 7", "result": 31.7, "unit": "days"}, {"measurement": "Days to 3 Doubling", "setting": "[7]; 45 Mg/Kg IP, Q 1D × 5 day 7", "result": 41.2, "unit": "days"}, {"measurement": "Non-Specific Deaths/Total", "setting": "[7]; 45 Mg/Kg IP, Q 1D × 5 day 7", "result": "4/6"}, {"measurement": "Toxicity remark under Days Delay (T − C)", "setting": "[7]; 45 Mg/Kg IP, Q 1D × 5 day 7", "result": "(Toxic)"}, {"measurement": "Tumor Free Surv/Total", "setting": "[7]; 45 Mg/Kg IP, Q 1D × 5 day 7", "result": "0/6"}, {"measurement": "Tumor Regression Number of Complete", "setting": "[7]; 45 Mg/Kg IP, Q 1D × 5 day 7", "result": 0}, {"measurement": "Tumor Regression Number of Partial", "setting": "[7]; 45 Mg/Kg IP, Q 1D × 5 day 7", "result": 0}, {"measurement": "Days Delay (T − C)", "setting": "[8]; 15 Mg/Kg IP", "result": 6.0, "unit": "days"}, {"measurement": "Days to 2 Doubling", "setting": "[8]; 15 Mg/Kg IP", "result": 14.9, "unit": "days"}, {"measurement": "Non-Specific Deaths/Total", "setting": "[8]; 15 Mg/Kg IP", "result": "0/6"}, {"measurement": "Tumor Free Surv/Total", "setting": "[8]; 15 Mg/Kg IP", "result": "0/6"}, {"measurement": "Tumor Regression Number of Complete", "setting": "[8]; 15 Mg/Kg IP", "result": 0}, {"measurement": "Tumor Regression Number of Partial", "setting": "[8]; 15 Mg/Kg IP", "result": 0}, {"measurement": "Days Delay (T − C)", "setting": "[8]; 22.5 Mg/Kg IP", "result": 15.1, "unit": "days"}, {"measurement": "Days to 2 Doubling", "setting": "[8]; 22.5 Mg/Kg IP", "result": 24.0, "unit": "days"}, {"measurement": "Non-Specific Deaths/Total", "setting": "[8]; 22.5 Mg/Kg IP", "result": "0/6"}, {"measurement": "Tumor Free Surv/Total", "setting": "[8]; 22.5 Mg/Kg IP", "result": "0/6"}, {"measurement": "Tumor Regression Duration Med", "setting": "[8]; 22.5 Mg/Kg IP", "result": 24.2, "unit": "days"}, {"measurement": "Tumor Regression Duration Range (Days)", "setting": "[8]; 22.5 Mg/Kg IP", "result": "24-24 Days"}, {"measurement": "Tumor Regression Number of Complete", "setting": "[8]; 22.5 Mg/Kg IP", "result": 1}, {"measurement": "Tumor Regression Number of Partial", "setting": "[8]; 22.5 Mg/Kg IP", "result": 0}, {"measurement": "Days Delay (T − C)", "setting": "[9]", "result": ">38.5", "unit": "days"}, {"measurement": "Days to 2 Doubling", "setting": "[9]", "result": ">49.0", "unit": "days"}, {"measurement": "Non-Specific Deaths/Total", "setting": "[9]", "result": "0/5"}, {"measurement": "Tumor Free Surv/Total", "setting": "[9]", "result": "4/5"}, {"measurement": "Tumor Regression Duration Med", "setting": "[9]", "result": 34.6, "unit": "days"}, {"measurement": "Tumor Regression Duration Range (Days)", "setting": "[9]", "result": "35-35 Days"}, {"measurement": "Tumor Regression Number of Complete", "setting": "[9]", "result": 5}, {"measurement": "Tumor Regression Number of Partial", "setting": "[9]", "result": 0}]}
{"smiles": "Nc1ccn(C2SC(COP(=O)(O)OP(=O)(O)OP(=O)(O)O)C(O)C2O)c(=O)n1", "note": "(stereo not shown) [T-araCTP]", "values": [{"measurement": "T-araCTP after the 1 hour incubation", "setting": "[10]", "result": 0.246, "unit": "pmol"}, {"measurement": "Initial Half-Life, Hours (SD)", "setting": "[11]", "result": "10.8 ± 1.80", "unit": "h"}]}
{"smiles": "Nc1ccn(C2CC(O)C(COP(=O)(O)OP(=O)(O)OP(=O)(O)O)S2)c(=O)n1", "note": "(stereo not shown) [T-dCTP]", "values": [{"measurement": "Initial Half-Life, Hours (SD)", "setting": "[11]", "result": "1.10 ± 0.35", "unit": "h"}]}
{"smiles": "Nc1ccn([C@@H]2O[C@H](COP(=O)(O)OP(=O)(O)OP(=O)(O)O)[C@@H](O)[C@@H]2O)c(=O)n1", "note": "[araCTP]", "values": [{"measurement": "araCTP after the 1 hour incubation", "setting": "[10]; CEM cells, 1 hour with 5 nM [5-3H]araC", "result": 0.639, "unit": "pmoles/10^6 cells"}, {"measurement": "Initial Half-Life, Hours (SD)", "setting": "[11]", "result": "5.31 ± 0.31", "unit": "h"}]}
{"smiles": "Nc1ccn([C@H]2C[C@H](O)[C@@H](COP(=O)(O)OP(=O)(O)OP(=O)(O)O)O2)c(=O)n1", "note": "[dCTP]", "values": [{"measurement": "Initial Half-Life, Hours (SD)", "setting": "[11]", "result": "0.94 ± 0.16", "unit": "h"}]}
{"smiles": "Nc1ccn([C@H]2C[C@H](O)[C@@H](CO)O2)c(=O)n1", "note": "[dCyd, 2′-deoxycytidine]", "values": [{"measurement": "DNA (percent of total)", "setting": "[12]", "result": "3% of total"}, {"measurement": "Original Compound (percent of total)", "setting": "[12]", "result": "38% of total"}, {"measurement": "Percent of wild-type", "setting": "[13]", "result": "1.5% of wild-type"}, {"measurement": "Percent Deamination", "setting": "[14]; F-dUrd 0 μM", "result": 32, "unit": "%"}, {"measurement": "Percent Deamination", "setting": "[14]; F-dUrd 10 μM", "result": 22, "unit": "%"}, {"measurement": "DNA", "setting": "[15]", "result": 0.011, "unit": "pmoles/10^6 cells"}, {"measurement": "DNA (percent of WT)", "setting": "[15]", "result": "0.89% of WT"}, {"measurement": "Total", "setting": "[15]", "result": 0.032, "unit": "pmoles/10^6 cells"}, {"measurement": "Total (percent of WT)", "setting": "[15]", "result": "0.91% of WT"}, {"measurement": "Phosphorylation, Wild-type", "setting": "[16]", "result": "240 ± 33", "unit": "pmoles/mg protein/minute"}, {"measurement": "DNA", "setting": "[17]", "result": 1.19, "unit": "pmoles/10^6 cells"}, {"measurement": "Total", "setting": "[17]", "result": 3.46, "unit": "pmoles/10^6 cells"}]}
